Molecules are shown by their SMILES. Active and inactive are the calls of the source.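 How the source made its calls: active means growth-inhibition EC50 no more than tenfold above the top tested dose; inconclusive means flat fit between 30% and 70% inhibition, or unreliable fit; inactive means EC50 more than tenfold above the top tested dose.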 Some results are limits rather than exact numbers.

The values below come from PubChem BioAssay AID1959 (Broad Institute, 2009).

The test relates to E. coli NEB5alpha growth, BacTiter-Glo luminescence, 4 h. As to the kind of experiment: antibacterial activity against E. coli NEB5alpha – luminescence, counter-screen for MEX-5/POS-1 RNA-binding inhibitor project, dose response (AID 1959).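 Further: pUC19-transformed ampicillin-resistant cells grown in LB with ampicillin.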 A general note: Counterscreens check selectivity or assay interference.
By EC50 is commonly meant the concentration needed to bring the measured effect to its halfway point. With `Cc1[nH][nH]c(=O)c1C(c1ccc(-c2cccc(C(=O)O)c2)o1)c1c(C)[nH][nH]c1=O`, the EC50 is > 11 µM (inactive). The figure for `Cc1ccc(-n2ncc3c(NNC(=O)c4ccco4)ncnc32)cc1C` is > 11 µM (inactive); for `Cc1cc(/C=C2\C(=O)NC(=O)N(c3ccc(Cl)cc3)C2=O)c(C)n1C` it is > 11 µM (inactive); for `COc1ccc(C2C(C#N)=C(N)OC3=C2C(=O)CC(C)(C)C3)cc1Cn1cc([N+](=O)[O-])cn1` (stereo not drawn) it is > 11 µM (inactive). Regarding `Cc1cc([N+](=O)[O-])ccc1-c1ccc(/C=N/NC(=O)c2ccc(Br)o2)o1`, the EC50 is > 11 µM (inactive). For the compound `CC1=CC(C)(C)N2C(=O)C3(C(C#N)=C(N)OC4=C3C(=O)CCC4)c3c(C)c(C)cc1c32` (stereo not drawn), the EC50 is > 11 µM (inactive). Regarding `COC(=O)c1ccccc1NCc1cc(=O)oc2cc(O)c(O)cc12`, the EC50 was > 11 µM (inactive). On to `N#CC1=C(N)C(C#N)(C#N)[C@H](c2ccsc2)[C@H]2COCC=C12`, for which the EC50 was > 11 µM (inactive). Turning to `O=[N+]([O-])c1ccc(N=Nc2ncc[nH]2)cc1`, the EC50 is > 11 µM (inactive). In the case of `O=C(CCN1C(=O)C2CC=C(Cl)CC2C1=O)N1CCCCC1` (stereo not drawn), the EC50 is > 11 µM (inactive).

Take `NC(=O)CC(NC(=O)Cc1ccc(Cl)cc1)c1ccc(NC2CCCCCC2)c([N+](=O)[O-])c1` (stereo not drawn): the EC50 is > 11 µM (inactive).

In the case of `O=C(c1cccs1)c1ccc(-c2cccs2)s1`, the EC50 was > 11 µM (inactive). Turning to `CC(=O)N(C)c1ccc(N=Nc2c(C)[nH]n(C(N)=S)c2=O)cc1`, the EC50 was > 11 µM (inactive). `Cc1ccc(N=Cc2cc(Br)cc(Cl)c2O)cc1`: the EC50 is > 11 µM (inactive). Take `Cc1ccc2nc3c(cc(C(=O)NCC4CCCO4)c(=N)n3C3CCCC3)c(=O)n2c1` (stereo not drawn): the EC50 is > 11 µM (inactive).

With `O=C1Nc2cc(Cl)cnc2N2CCCC12` (stereo not drawn), the EC50 was > 11 µM (inactive). Consider `Cc1nc2c3ccccc3nc(NNC(=O)CCC(=O)N3CCCC(C)C3)n2n1` (stereo not drawn), for which the EC50 is > 11 µM (inactive). `C=CCOc1ccc(C2C(C(=O)c3ccco3)=C(O)C(=O)N2c2nnc(C)s2)cc1` (stereo not drawn): the EC50 was > 11 µM (inactive). On to `COC(=O)/C=C1\C(=O)N(c2nc3ccccc3s2)C(=S)N1c1ccc(F)cc1`, for which the EC50 is > 11 µM (inactive). For `COc1ccccc1CCC(=O)OCc1csc(CC(=O)Nc2ccccc2C)n1`, the EC50 was > 11 µM (inactive).

Regarding `COc1ccccc1OCC(=O)N/N=C/c1c(O)ccc2ccccc12`, the EC50 is > 11 µM (inactive). Regarding `Fc1ccc2c(c1)C1C=CCC1C(c1cc3c(cc1Br)OCO3)N2` (stereo not drawn), the EC50 is > 11 µM (inactive). The figure for `Cc1cccn2c(=O)c3cc(C(=O)NC4CCCC4)c(=N)n(CCc4ccccc4)c3nc12` is > 11 µM (inactive); for `CCCC1Nc2ccc(C(=O)O)cc2C2C=CCC12` (stereo not drawn) it is > 11 µM (inactive); for `Cc1ccc(C(=O)C2=C(O)C(=O)N(Cc3ccco3)C2c2ccc(N(C)C)cc2)o1` (stereo not drawn) it is > 11 µM (inactive). The value for `CCOC(=O)c1c(/N=C/c2c(O)n(-c3cccc(C)c3)c(=O)[nH]c2=O)sc2c1CCCC2` was > 11 µM (inactive); that for `N#C/C(=C\N1CCN(Cc2ccc3c(c2)OCO3)CC1)c1nc2ccccc2s1` was > 11 µM (inactive); that for `CC(=O)c1ccc(NC(=O)CSc2nnc(-c3ccncc3)o2)cc1` was > 11 µM (inactive). For `O=C(NCCO)c1ccc2nc(-c3ccco3)c(-c3ccco3)nc2c1`, the EC50 was > 11 µM (inactive). As to `COc1ccc(S(=O)(=O)Nc2ccc(O)c(Sc3ncn[nH]3)c2)cc1`, the EC50 is > 11 µM (inactive).

Turning to `O=C1C2CC=C(Cl)CC2C(=O)N1CCc1ccccc1` (stereo not drawn), the EC50 was > 11 µM (inactive).

With `Cc1ncc(/C=C2\C(=O)Nc3ccccc32)[nH]1`, the EC50 was > 11 µM (inactive). The value for `COc1ccc(C(=O)/C=C/c2ccc(-c3ccccc3)cc2)cc1CSCC(=O)O` was > 11 µM (inactive); that for `Cc1ccc(NC(=O)CN2C(=O)S/C(=C\c3cccn3-c3cccc(C(=O)O)c3)C2=O)c(C)c1` was > 11 µM (inactive). In the case of `Oc1[nH]c2ccccc2c1N=Nc1ccccc1`, the EC50 is > 11 µM (inactive). With `N=c1c(S(=O)(=O)c2ccc(Br)cc2)cc2c(=O)n3ccccc3nc2n1C1CCCCC1`, the EC50 was > 11 µM (inactive). For the compound `O=C(O)C1Nc2ccc(Br)cc2C2C=CCC12` (stereo not drawn), the EC50 was > 11 µM (inactive).

Consider `N=C1c2ccccc2CN1NC(=O)CC12CC3CC(CC(C3)C1)C2`, for which the EC50 is > 11 µM (inactive). Regarding `COC(=O)c1ccc(-n2c(C)cc(/C=N/n3cnnc3)c2C)cc1`, the EC50 was > 11 µM (inactive). Take `O=C1NC(=O)C(=Cc2cn(CCOc3ccc4c(c3)OCO4)c3ccccc23)C(=O)N1`: the EC50 was > 11 µM (inactive). Turning to `O=c1[nH]c(=O)n(Cc2ccccc2Cl)c(O)c1C=Nc1ccc(F)cc1`, the EC50 is > 11 µM (inactive). For `CN=C1S/C(=C\c2cn(CC(=O)OC)c3ccccc23)C(=O)N1C`, the EC50 was > 11 µM (inactive). The figure for `C=CCNC(=S)N1CCN(c2cccc(C(F)(F)F)c2)CC1` is > 11 µM (inactive); for `COc1ccccc1NCC(=O)N/N=C/c1c(O)ccc2ccccc12` it is > 11 µM (inactive). With `COc1cccc(F)c1C(=O)NC(=O)Nc1ccc2nc(C)oc2c1`, the EC50 is > 11 µM (inactive). In the case of `C/C(=N\Nc1ccc(Cl)c(C(=O)O)c1)c1ccc[nH]1`, the EC50 was > 11 µM (inactive). In the case of `CCC(=O)OC1(C)C(=O)C2=COC(c3ccc(OC)cc3)=CC2=C(Br)C1=O` (stereo not drawn), the EC50 is > 11 µM (inactive). The value for `Cc1cc(/C=N/Nc2ccc([N+](=O)[O-])cn2)c(C)n1-c1ccc(C(=O)O)cc1` was > 11 µM (inactive). Take `CC(=O)c1ccc(C(=O)Nc2sc3c(c2C(N)=O)CCN(Cc2ccccc2)C3)cc1`: the EC50 was > 11 µM (inactive). With `COC(=O)/C(C#N)=C/c1c(Oc2cc(C)cc(C)c2)nc2c(C)cccn2c1=O`, the EC50 was > 11 µM (inactive).

For the compound `Cc1c(N=C2Nc3cccc4cccc2c34)c(=O)n(-c2ccccc2)n1C`, the EC50 is > 11 µM (inactive).

In the case of `CCCCn1c(=O)[nH]c(=O)c2c1nc(-c1ccc(-c3ccccc3Br)o1)n2CCOC`, the EC50 was > 11 µM (inactive). The figure for `COc1cc(C2C(C#N)=C(N)OC3=C2C(=O)CCC3)cc2c1OCO2` (stereo not drawn) is > 11 µM (inactive); for `Cc1ccc(C)n1-c1ccc(C(=O)O)cc1` it is > 11 µM (inactive). For `Cc1ccccc1Nc1nc(Cl)c(C=O)s1`, the EC50 was > 11 µM (inactive). In the case of `CCOc1ccc2c(c1)/C(=C(\C(Cl)=C(Cl)Cl)[N+](=O)[O-])N2`, the EC50 was > 11 µM (inactive). `CNC(=O)NC(=O)COC(=O)c1ccc(-n2c(C)ccc2C)cc1`: the EC50 is > 11 µM (inactive). Regarding `Cc1c(/C=N/NC(=O)c2cc(=O)[nH]c(=O)[nH]2)c2ccccn2c1C(=O)c1ccccc1`, the EC50 was > 11 µM (inactive). For `CC1CN(c2nc3ccccc3nc2C(C#N)C(=O)NC2CCCCC2)CC(C)O1` (stereo not drawn), the EC50 was > 11 µM (inactive). For the compound `CCCC[n+]1ccn(C2=C([O-])c3ccccc3C(=O)/C2=N\S(=O)(=O)c2ccc(Cl)cc2)c1`, the EC50 was > 11 µM (inactive). `C=CCOc1cccc(C2C(C(=O)c3ccc(C)o3)=C(O)C(=O)N2c2nccs2)c1` (stereo not drawn): the EC50 is > 11 µM (inactive). For `CCOc1ccc(Br)cc1S(=O)(=O)NC(=O)c1ccccc1`, the EC50 is > 11 µM (inactive).

For `COc1cccc(C2c3c(oc4ccccc4c3=O)C(=O)N2Cc2ccco2)c1` (stereo not drawn), the EC50 was > 11 µM (inactive).

Turning to `Cc1ccccc1NC(=O)/C(C#N)=C/c1ccc(-c2ccc(Cl)c(C(=O)O)c2)o1`, the EC50 is > 11 µM (inactive).

As to `CN1C(=O)/C(=C\c2ccc(N3CCCCC3)o2)C(=O)NC1=S`, the EC50 was > 11 µM (inactive). On to `Cc1cc(=O)n2[nH]c(N)c(N=Nc3ccccc3)c2n1`, for which the EC50 is > 11 µM (inactive). In the case of `O=C(NNC(=O)c1ccccc1[N+](=O)[O-])c1cnccn1`, the EC50 is > 11 µM (inactive). The figure for `O=C(NCCOc1ccccc1)C1Nc2ccc(OC(F)(F)F)cc2C2C=CCC12` (stereo not drawn) is > 11 µM (inactive); for `C[C@@H]1O[C@@H](OC2C(O)C(OCCc3ccc(O)c(O)c3)OC(CO)C2OC(=O)/C=C/c2ccc(O)c(O)c2)[C@H](O)[C@H](O)[C@H]1O` (stereo partly drawn) it is > 11 µM (inactive); for `CCN(CC)CCN=Cc1c(O)n(CCc2ccccc2)c(=O)[nH]c1=O` it is > 11 µM (inactive).

On to `Cn1nc(-c2ccc(Cl)cc2)nc2c(=O)n(C)c(=O)nc1-2`, for which the EC50 was > 11 µM (inactive). The value for `CC/C(=C\C=C\[C@@H]1C=C[C@@H]2CCC[C@H]2[C@@H]1C(=O)c1ccc[nH]1)[C@@H]1O[C@@H]([C@@H](C)C(=O)O)CC[C@@H]1C` was > 11 µM (inactive). In the case of `Oc1[nH]c2ccccc2c1N=Nc1cccc(Cl)c1`, the EC50 is > 11 µM (inactive).

Take `COc1ccc(C2=CC3=C(Br)C(=O)C(C)(OC(=O)c4cccs4)C(=O)C3=CO2)cc1` (stereo not drawn): the EC50 is > 11 µM (inactive).

Regarding `O=S(=O)([N-]c1nc2ccccc2nc1-[n+]1ccc(CCCc2ccccc2)cc1)c1cccs1`, the EC50 was > 11 µM (inactive). The value for `CCc1ccc(S(=O)(=O)Nc2cc(SCC(=O)O)c(O)c3ccccc23)cc1` was > 11 µM (inactive). The value for `Nc1nc(Sc2ccc([N+](=O)[O-])cc2[N+](=O)[O-])n[nH]1` was > 11 µM (inactive); that for `CCOC(=O)C(C(=O)OCC)c1cc(Br)c2noc3c2c1C(=O)c1ccccc1-3` was > 11 µM (inactive); that for `COc1ccccc1-n1c(O)c(/C=C2\C=Nc3ccccc32)c(=O)[nH]c1=O` was > 11 µM (inactive).

For the compound `Cn1cc(C=C2C(=O)NC(=O)NC2=O)c2ccccc21`, the EC50 is > 11 µM (inactive).

`O=C(Nc1ccnn1C1CCN(CC2CC=CCC2)CC1)c1ccccc1` (stereo not drawn): the EC50 was > 11 µM (inactive). In the case of `CCOc1ccc(/C=c2\sc3nc(-c4ccco4)nn3c2=O)cc1OCC`, the EC50 is > 11 µM (inactive). Regarding `CN1C(=O)/C(=C\c2ccc(N(C)C)cc2)OC1=S`, the EC50 was > 11 µM (inactive).
